According to patent US9738684B2, “N-terminally modified linear and branched polyamine conjugated peptidomimetics as antimicrobials agents” (COUNCIL OF SCIENTIFIC & INDUSTRIAL RESEARCH, priority 2015, dated 2017):
≈ marks a conversion by molar mass, not a printed value.

Legend:
[1] = test system: MRSA; assay: MIC in presence of 25% v/v human serum; format: cell-based, Staphylococcus aureus
Procedure: Following bacterial strains were used in this study: S. aureus (ATCC 29213), methicillin resistant S. aureus (ATCC 33591), Staphylococcus epidermidis (ATCC 12228), methicillin resistant Staphylococcus epidermidis(ATCC 51625), Enterococcus faecalis (ATCC 7080), Escherichia coli (ATCC 11775), and Acinetobacter baumannii (ATCC 19606). Antibacterial activity was evaluated using a modified serial broth dilution method in accordance with Clinical Laboratory Standard Institute guidelines [Methods for dilution antimicrobial susceptibility tests for bacteria that grow aerobically-7th ed. Approved standard M7-A7. Clinical and Laboratory Standards Institute, Wayne, Pa., Biochim. Biophys. Acta 1798:1864-1875, 2010.]. Briefly, the inoculums were prepared from mid-log phase bacterial cultures. Peptidomimetics were incubated with bacterial suspension in Muller Hinton broth media (10^5 CFU/mL) in 96 well microtitre plate. The plates were incubated overnight with agitation (200 rpm) at 37° C. After 18 h, absorbance was measured at 630 nm. Cultures without test peptidomimetics were used as positive control. Un-inoculated Mueller Hinton Broth (MHB) was used as negative control. Tests were carried out in duplicate on at least three different days. […] Further, antibacterial activity of active peptidomimetics 1c and 1d were also evaluated against MRSA in presence of 25% v/v human serum as well as bovine serum.

[2] = test system: human red blood cells (hRBC); assay: Hemolytic activity; format: cell-based; details: 250 μg/mL, 1 h at 37° C.
Procedure: Hemolytic activity of the peptidomimetics was evaluated on human red blood cells (hRBC) as described previously with minor modifications [FEBS J, 273:4040-4054, 2006; Biochim Biophys Acta., 1798:1864-1875, 2010]. Briefly, 100 μL of fresh hRBC suspension 4% v/v in NaCl/Pi (35 mM phosphate buffer, 150 mM NaCl, pH 7.2) was placed in a 96-well plate. After incubation of the peptidomimetics (100 μL) in the hRBC suspension for 1 h at 37° C., the plates were centrifuged and supernatant (100 μL) was transferred to fresh 96-well plate. Absorbance was read at 540 nm using ELISA plate reader (Molecular Devices). Percent hemolysis was calculated using the following formula: % hemolysis=100[(A−A0)/(At−A0)]
Where, A represents absorbance of sample wells at 540 nm. Also A0 and At represents 0% and 100% hemolysis determined in NaCl/Pi and 1% Triton X-100, respectively (Table 2). […] Peptidomimetics 1e and 1f caused 31% and 30% hemolysis at 250 μg/mL. Peptidomimetics 2d, 2e and 2f caused significant hemolysis with 83%, 96% and 88% damage to hRBCs at […] respectively.

[3] = test system: MRSA; assay: Membrane depolarization with DiSC3(5) dye; format: cell-based, Staphylococcus aureus; details: up to the highest concentration tested
Procedure: For determination of membrane depolarizing ability of designed peptidomimetics, a membrane potential sensitive dye DiSC3(5) was used as described previously with minor modifications [Org Biomol. Chem. 10: 8326-8335, 2012; J. Am. Chem. Soc., 132: 18417-18428, 2010.]. Briefly, overnight grown MRSA was sub cultured into MHB for 2-3 h at 37° C. to obtain mid-log phase cultures. The cells were centrifuged at 4000 rpm for 10 min at 25° C., washed, and re-suspended into respiration buffer (5 mM HEPES, 20 mM glucose, pH 7.4) to obtain a diluted suspension of OD600˜0.05. Then DiSC3(5) [0.18 μM in DMSO], was added to 500 μL aliquotes of the re-suspended cells and allowed to stabilize for 1 h. Baseline fluorescence was acquired using a Edinburg F900 spectrofluorometer by excitation at 622 nm and emission at 670 nm in a 1 cm path length cuvette. Bandwidth of 5 nm was employed for excitation and emission. Subsequently, increasing concentrations of test peptidomimetics were added to the stabilized cells and the increase of fluorescence on account of the de-quenching of DiSC3(5) dye was measured after every 2 min to obtain the maximal depolarization. Increase in relative fluorescence unit (RFU) was plotted against increasing concentrations of different peptidomimetics or PMB. […] The increase in fluorescence for lipid tagged peptidomimetics was concentration dependent up to 9.9 μg/mL and henceforth, got saturated resulting into plateau like dose response curves. The experiment was repeated twice on two consecutive days and produced similar results.

[4] = test system: S. aureus (ATCC 33591); assay: Resistance development study, serial passage at sub MIC; format: cell-based, Staphylococcus aureus; details: 17 serial passages at sub MIC
Procedure: FIG. 5: Illustration of resistance development study in S. aureus (ATCC 33591) after 17 serial passages with sub MIC of 1c/1d or antibiotic treatment. The fold change in MIC is the ratio of the MIC after 17 passages relative to that MIC observed before first passage.
To determine potential of active peptidomimetics against resistance development, in vitro serial passage method at sub inhibitory concentration was done. Briefly, bacterial suspension (100 μL) from duplicate wells at the concentration of sub-MIC was used to inoculate fresh culture. The culture was grown to obtain approximately 10^5 CFU/mL for the next experiment. These bacterial suspensions were then incubated with desired concentration of antibacterial agents for 18 h to determine new MIC. The same sub culturing protocol was used for next 16 passages and MIC was determined using OD630 nm as described previously in the text [Chem. Biol., 20:1286-1295, 2013.]

[5] = test system: Acinetobacter baumannii (ATCC 19606); assay: MIC, serial broth dilution; format: cell-based; details: MHB, 18 h, 37° C.
[6] = test system: MRSA (ATCC 33591) biofilm; assay: Inhibition of biofilm formation (alamar blue, crystal violet); format: cell-based, Staphylococcus aureus; details: sub-MICb; for reduction in metabolic activity (alamar blue), biofilm formation: printed as 'reduction up to'
Procedure: To evaluate potential of designed active peptidomimetics against MRSA biofilms a methodology as used previously was employed with minor modifications [Antimicrob. Agents Chemother., 57:2726-2737, 2013]. Briefly, freshly inoculated MRSA (ATCC 33591) was grown in biofilm growth media (TSB supplemented with 0.5% w/v NaCl and 0.25% w/v glucose) overnight. Next day, the culture was diluted in fresh biofilm growth media to 10^5 CFU/mL. 200 μl of diluted culture was dispensed in wells of a 96-well polystyrene plate for biofilm formation. […] Biofilm cultures were re-incubated at 37° C. for 24 h. After removal of medium, the biofilms were further washed twice with sterile NaCl/Pi buffer and assessed for metabolic activity (alamar blue assay) and biomass quantification (Crystal violet assay).

SMILES	increase in MIC in human serum [1] [fold]	% H, percentage hemolysis of human RBCs [2] [%]	change in relative fluorescence unit (RFU), membrane depolarization [3]	increase in MIC after 17 passages [4] [fold]	MIC A. baumannii (ATCC 19606) [5] [µg/mL]	% biomass reduction (crystal violet), biofilm formation [6] [%]	reduction in metabolic activity (alamar blue), biofilm formation [6] [%]
NCCCNCCCCNCCCNC(=O)C(Cc1c[nH]c2ccccc12)NC(=O)C(Cc1c[nH]c2ccccc12)NC(=O)Cc1ccc(C(F)(F)F)cc1 (centres unmarked) [1c]	4	2	only marginal changes in RFU	4	0.0284 (≈ 0.0373 µM)	19.8±5.6	33.1±5.7
CCCCCCCCCC(=O)NC(Cc1c[nH]c2ccccc12)C(=O)NC(Cc1c[nH]c2ccccc12)C(=O)NCCCNCCCCNCCCN (centres unmarked) [1d]	8	9	intermediate changes in fluorescence intensity	2	0.1136 (≈ 0.156 µM)	28.2±11.1	26.4±3.3
